Measurements taken from patent US10092606B2, “Synbiotic mixture” (Nestec S.A., priority 2006, dated 2018).

Target: toxin A from C. difficile (Clostridioides difficile, UniProt P16154)
Test: Protection of T84 monolayers against C. difficile toxin A (transepithelial electrical resistance)
Assay type: cell-based, Clostridium difficile
Conditions: T84 cells; prebiotic in combination with the same probiotic strains; fructooligosaccharides 20 g/l, galactooligosaccharides 20 g/l, sialyllactose 10 g/l; compared with preparations of the invention; FIG. 2

Sequence of toxin A from C. difficile (P16154 whole entry, looked up): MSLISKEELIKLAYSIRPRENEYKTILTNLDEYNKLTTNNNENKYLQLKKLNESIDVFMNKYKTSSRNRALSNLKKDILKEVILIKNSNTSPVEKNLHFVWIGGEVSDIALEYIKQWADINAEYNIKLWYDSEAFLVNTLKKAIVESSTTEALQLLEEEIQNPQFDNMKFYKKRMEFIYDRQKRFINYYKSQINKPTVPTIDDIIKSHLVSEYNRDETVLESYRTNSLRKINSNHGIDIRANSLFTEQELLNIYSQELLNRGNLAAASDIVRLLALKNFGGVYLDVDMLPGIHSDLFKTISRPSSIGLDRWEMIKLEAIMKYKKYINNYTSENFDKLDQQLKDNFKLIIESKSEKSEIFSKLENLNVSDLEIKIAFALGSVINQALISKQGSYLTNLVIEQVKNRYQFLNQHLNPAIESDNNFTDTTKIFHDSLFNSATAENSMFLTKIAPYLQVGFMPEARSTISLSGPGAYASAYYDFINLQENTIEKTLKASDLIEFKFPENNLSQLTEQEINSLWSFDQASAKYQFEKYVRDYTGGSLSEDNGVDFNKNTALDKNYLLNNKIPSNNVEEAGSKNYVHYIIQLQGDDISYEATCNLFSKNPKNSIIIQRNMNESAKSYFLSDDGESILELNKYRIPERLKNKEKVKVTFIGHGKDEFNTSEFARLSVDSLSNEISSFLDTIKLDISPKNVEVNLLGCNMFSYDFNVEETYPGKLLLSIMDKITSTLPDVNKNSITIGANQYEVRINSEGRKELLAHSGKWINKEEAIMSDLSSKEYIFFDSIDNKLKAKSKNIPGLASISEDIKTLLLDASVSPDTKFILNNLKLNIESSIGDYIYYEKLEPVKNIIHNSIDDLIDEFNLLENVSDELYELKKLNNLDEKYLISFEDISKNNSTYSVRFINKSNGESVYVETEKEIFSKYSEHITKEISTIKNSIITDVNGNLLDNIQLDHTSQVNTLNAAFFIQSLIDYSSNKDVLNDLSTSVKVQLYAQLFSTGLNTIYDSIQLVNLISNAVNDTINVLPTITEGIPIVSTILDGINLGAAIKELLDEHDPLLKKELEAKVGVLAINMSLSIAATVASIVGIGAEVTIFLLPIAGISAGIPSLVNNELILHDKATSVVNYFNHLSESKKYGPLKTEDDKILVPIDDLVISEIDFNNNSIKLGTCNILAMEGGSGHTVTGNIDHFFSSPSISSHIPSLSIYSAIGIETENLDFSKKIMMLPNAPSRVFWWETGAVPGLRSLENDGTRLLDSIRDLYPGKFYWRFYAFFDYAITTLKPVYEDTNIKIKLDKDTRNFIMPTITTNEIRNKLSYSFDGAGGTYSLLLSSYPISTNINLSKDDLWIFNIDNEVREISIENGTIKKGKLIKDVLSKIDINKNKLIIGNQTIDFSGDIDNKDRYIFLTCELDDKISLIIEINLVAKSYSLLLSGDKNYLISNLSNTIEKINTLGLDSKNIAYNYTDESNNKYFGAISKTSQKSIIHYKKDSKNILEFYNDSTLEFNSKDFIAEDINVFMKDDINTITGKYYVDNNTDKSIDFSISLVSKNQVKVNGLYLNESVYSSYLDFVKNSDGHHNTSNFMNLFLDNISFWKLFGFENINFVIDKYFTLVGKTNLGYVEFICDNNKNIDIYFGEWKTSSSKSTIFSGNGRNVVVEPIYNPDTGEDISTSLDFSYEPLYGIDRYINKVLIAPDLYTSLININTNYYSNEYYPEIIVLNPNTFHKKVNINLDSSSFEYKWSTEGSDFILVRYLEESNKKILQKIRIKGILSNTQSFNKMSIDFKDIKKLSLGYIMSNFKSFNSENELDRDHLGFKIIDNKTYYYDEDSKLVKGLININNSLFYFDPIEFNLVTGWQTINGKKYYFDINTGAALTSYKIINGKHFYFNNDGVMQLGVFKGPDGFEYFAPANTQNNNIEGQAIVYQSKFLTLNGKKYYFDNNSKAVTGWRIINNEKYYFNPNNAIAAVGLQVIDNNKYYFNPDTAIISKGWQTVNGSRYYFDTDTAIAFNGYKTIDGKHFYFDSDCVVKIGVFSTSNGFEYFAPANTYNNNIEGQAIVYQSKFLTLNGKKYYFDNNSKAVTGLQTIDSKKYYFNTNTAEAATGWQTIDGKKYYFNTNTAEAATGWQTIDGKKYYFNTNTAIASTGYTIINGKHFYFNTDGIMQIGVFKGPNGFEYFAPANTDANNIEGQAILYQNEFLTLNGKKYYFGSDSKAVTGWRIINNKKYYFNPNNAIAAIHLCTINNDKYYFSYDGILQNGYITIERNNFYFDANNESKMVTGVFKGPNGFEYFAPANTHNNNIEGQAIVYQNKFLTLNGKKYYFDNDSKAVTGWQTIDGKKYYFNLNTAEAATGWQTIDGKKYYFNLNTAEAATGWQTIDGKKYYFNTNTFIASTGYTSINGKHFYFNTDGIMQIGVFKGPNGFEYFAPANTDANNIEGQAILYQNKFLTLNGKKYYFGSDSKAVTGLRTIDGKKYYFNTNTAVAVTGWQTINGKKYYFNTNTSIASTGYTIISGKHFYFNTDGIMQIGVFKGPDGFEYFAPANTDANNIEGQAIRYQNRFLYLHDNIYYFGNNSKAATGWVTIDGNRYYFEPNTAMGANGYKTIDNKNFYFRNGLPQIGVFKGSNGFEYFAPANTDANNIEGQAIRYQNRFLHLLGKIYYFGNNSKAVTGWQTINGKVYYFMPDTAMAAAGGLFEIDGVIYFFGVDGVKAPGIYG

sialyllactose
effect against C. difficile toxin A (TER, normalized protection score): a comparable effect was not achieved
